Experimental data from PubChem BioAssay AID602296 (Broad Institute, 2012).
Results filed as inconclusive are left out. Calls of active or inactive are those of the source.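 How the source made its calls: active means fitted activation curve crossing 40% at a concentration no higher than the sample's top valid tested dose; inconclusive means flat fitted curve at 30% to 70% activation, or poor curve fit; inactive means signal decrease, flat curve within 30%, or the rest.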 Peptide text beside a SMILES is read from it. * marks the point of attachment. Boc = CC(C)(C)OC(=O)*; OtBu = CC(C)(C)O*

Test system: NIH3T3-HGL HSF-1 response element luciferase, 48 h
Experiment: HSF-1 reporter activators over prolonged exposure, confirmation, cell-based, mouse, luciferase, cherry-pick, dose (AID 602296);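 further: test compounds applied by themselves with no MG132 co-treatment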

| Compound | AC40 |
| --- | --- |
| O=C(NCc1ccccc1)c1c(Cl)nc(Cl)c(Cl)c1Cl | > 26 µM (inactive) |
| O=C(O)CC1=C(Nc2ccccc2)C(=O)N(c2ccccc2)C1c1ccc(Cl)cc1 (stereo not drawn) | 5.67 µM |
| COC(=O)/C=C1/N/C(=N\c2nc(C)cc(C)n2)N(c2ccc(C)c(C)c2)C1=O | > 26 µM (inactive) |
| COc1ccc2cc(/C=C/C(=O)N3CCN(CC(=O)N4CCCCCC4)CC3)ccc2c1 | 12.6 µM |
| O=C1/C(=C\c2ccc(Br)o2)Cc2ccccc21 | 10.7 µM |
| CCOC(=O)Cn1nnc(-c2cccc(OC)c2)n1 | 12.8 µM |
| COC(=O)c1ccc(OC(=O)CCN2C(=O)C3CCCCC3C2=O)cc1 (stereo not drawn) | > 26 µM (inactive) |
| CCS(=O)(=O)C(=C1NCCO1)S(=O)(=O)CC | > 26 µM (inactive) |
| Cc1cc(C(=O)N2CCN(c3ccccn3)CC2)c(C)o1 | > 26 µM (inactive) |
| COc1cc(SSc2cc(OC)cc([N+](=O)[O-])c2N)c(N)c([N+](=O)[O-])c1 | 17.9 µM |
| CCCN1C(=O)c2ccccc2NC1c1ccc(Cl)c(Cl)c1 (stereo not drawn) | > 26 µM (inactive) |
| Cc1onc(-c2ccccc2)c1NC(=O)N(CCC#N)Cc1ccccc1 | > 26 µM (inactive) |
| CC1(C)CC(=O)C2=C(C1)OC(N)=C(C#N)C2C#Cc1ccccc1 (stereo not drawn) | 10.4 µM |
| S=c1[nH]cc(Cc2ccccc2)s1 | 23.4 µM |
| O=C(CSc1nc2nccnc2c(=O)n1Cc1cccs1)Nc1ccccc1F | 9.52 µM |
| N#Cc1ccc(Cl)cc1NC(=O)CNCc1cccs1 | > 26 µM (inactive) |
| NC(=O)Cc1ccc2c(c1)[nH]c1ccccc12 | > 26 µM (inactive) |
| O=C(NCc1cccc(F)c1)c1noc2c1CCCC2 | 6.03 µM |
| Cc1cc(-c2ccc(C(C)C)c(S(=O)(=O)NCCN3CCC(C)CC3)c2)on1 | > 26 µM (inactive) |
| CC(=O)N=c1sccn1CC(=O)c1ccc([N+](=O)[O-])cc1 | > 26 µM (inactive) |
| Cc1ccccc1CC(=O)NC1CCCc2ccccc21 (stereo not drawn) | > 26 µM (inactive) |
| O=[N+]([O-])c1ccc(S(=O)(=O)N2CCSC2c2ccco2)cc1 (stereo not drawn) | > 26 µM (inactive) |

| Compound | AC40 |
| --- | --- |
| NS(=O)(=O)c1ccc(NC(=O)CN2C(=O)CCC2=O)cc1 | > 26 µM (inactive) |
| CCCCc1cc(O)c(CCCC)c(O)c1 | 4.58 µM |
| CC(=O)Nc1nnc(SCC(=O)c2ccc(F)cc2)s1 | 17.4 µM |
| O=C1C2CC=CCC2C(=O)N1Cc1nnc(-c2ccc(Cl)cc2)o1 (stereo not drawn) | 6.68 µM |
| CCOC(=O)N1CCC(NS(=O)(=O)c2ccc3c(c2)C(C)(C)C(=O)N3C)CC1 | > 26 µM (inactive) |
| CN(Cc1ccccc1)C(=O)c1cc(-c2ccc(Br)cc2)on1 | 2.21 µM |
| NC(=O)c1nn(-c2ccccc2)nc1NC(=O)CN1CCCCC1 | > 26 µM (inactive) |
| O=C(NC(=S)Nc1ccccc1C(F)(F)F)c1ccccc1F | 19.3 µM |
| CCCNC(=O)Nc1ccc(C)cc1C | > 26 µM (inactive) |
| O=C(NNc1cccc(Cl)n1)Nc1ccc(Cl)cc1 | > 26 µM (inactive) |
| O=C(CC12CCC(CC1)C2)NCc1ccc2c(c1)OCO2 | > 26 µM (inactive) |
| CCOC(=O)c1nnsc1Nc1ccc(C)c(C)c1 | 5.31 µM |
| O=C(CN1CCOCC1)N(c1ccccc1)c1ccc2ccccc2c1 | 14.6 µM |
| Clc1ccc(-c2nc(/C=N/N3CCOCC3)c3ccccn23)cc1 | 18.3 µM |
| Cc1ccc(CN2CCN(CC(C)C)C(CCO)C2)s1 (stereo not drawn) | 1.66 µM |
| Cc1ccc(S(=O)(=O)N(CC(=O)NCc2ccco2)Cc2ccc(F)cc2)cc1 | > 26 µM (inactive) |
| CCC(Sc1nc2cc3c(cc2c(=O)n1Cc1ccco1)OCO3)C(=O)NCCOC (stereo not drawn) | > 26 µM (inactive) |
| O=c1[nH]c2ccc(S(=O)(=O)Nc3ccc(-c4nnc5n4CCCCC5)cc3)cc2o1 | > 26 µM (inactive) |
| CN(C)C(CNC(=O)CCC(=O)c1ccc(Br)cc1)c1ccccc1 (stereo not drawn) | > 26 µM (inactive) |
| CCOC(=O)/C=C(\C)Nc1cc(C)nn1-c1ccccc1 | 17.2 µM |
| CCOc1ccc(-n2cc(C(=O)N3CCC(C)CC3)c3cc(OC)c(OC)cc3c2=O)cc1 | 25 µM |
| O=C(NNc1c(Cl)cccc1Cl)C1CCC1 | 23.5 µM |

| Compound | AC40 |
| --- | --- |
| COc1cc(CC(=O)N(c2ccccc2)c2nc(C)cs2)cc(OC)c1OC | > 26 µM (inactive) |
| O=C(CN1C(=O)NC2(CCCC2)C1=O)NCCN1C(=O)S/C(=C\c2ccccc2F)C1=O | > 26 µM (inactive) |
| Cc1c(/C=N/NC(=O)c2ccc(Br)o2)cnn1C | 22.4 µM |
| Cc1ccc(NC2c3ncccc3C(=O)N2C2CCCCC2)cc1 (stereo not drawn) | > 26 µM (inactive) |
| COc1ccc(N2CCN(c3ncnc4c3cnn4-c3ccc(C)cc3C)CC2)cc1 | > 26 µM (inactive) |
| Cc1nc(/C(N)=N/OC(=O)Cc2ccccc2)no1 | 22.2 µM |
| Cc1cc(-c2nnc(CCC(=O)N(C)Cc3cccc4ccccc34)o2)no1 | 12 µM |
| Cc1cc(C)cc(OCC(O)CN2C(=O)NC(C)(C)C2=O)c1 (stereo not drawn) | > 26 µM (inactive) |
| COC(=O)Cn1c(=O)c2c(nc3n2CC(C)CN3CCc2ccccc2)n(C)c1=O (stereo not drawn) | > 26 µM (inactive) |
| CN1C(=O)C2C(c3ccc(N(C)C)cc3)=NN(Cc3ccccc3)C2C1=O (stereo not drawn) | > 26 µM (inactive) |
| O=C(N/N=C/c1ccncc1)c1cc2ccccc2cc1O | 25.2 µM |
| COC(=O)C(Cc1ccc(O)cc1)NC(=O)C(CC(=O)OC(C)(C)C)NC(=O)OC(C)(C)C (stereo not drawn) (Boc-Asp(OtBu)-Tyr-OMe; configuration not given here) | 16.5 µM |
| CCc1[nH]nc2c1C1(CCN(C(=O)OCc3ccccc3)CC1)C(C#N)=C(N)O2 | > 26 µM (inactive) |
| COc1ccc(C)cc1-n1c(=O)c2ccccc2c2ccccc2c1=O | > 26 µM (inactive) |
| Cc1cc2c(cc1C)-c1nnnn1C(C)(C)C2 | > 26 µM (inactive) |
| O=C(O)CSc1nnnn1-c1ccc2c(c1)OCCO2 | > 26 µM (inactive) |
| C[C@H](NC(=O)[C@@H]1CSC2c3ccccc3C(=O)N21)C(=O)NCCc1ccccc1 (stereo partly drawn) | 24.7 µM |
| Cc1ccc(N2Cc3ccccc3OC(C)C2=O)cc1 (stereo not drawn) | > 26 µM (inactive) |
| CCOc1ccc2nc(COC(=O)c3cccc([N+](=O)[O-])c3)c(C(C)=O)[n+]([O-])c2c1 | > 26 µM (inactive) |
| COc1ccc(/C=C/C(=O)NCCCc2ccccc2)cc1 | > 26 µM (inactive) |
| CCN(CC)CCCNC(=O)CSc1c2c(nc3cc(Cl)ccc13)CCCC2 | 22 µM |
| C=CCN1C(=O)C(Cc2ccc(OCC)cc2)SC1=Nc1ccc(C(=O)O)cc1 (stereo not drawn) | > 26 µM (inactive) |

| Compound | AC40 |
| --- | --- |
| COc1ccc(C(=O)NCC(=O)OCC(=O)c2ccc3c(c2)NC(=O)CO3)cc1 | > 26 µM (inactive) |
| CN(c1ccccc1)c1nc(N)c([N+](=O)[O-])c(N2CCCCCC2)n1 | > 26 µM (inactive) |
| OCC1(CCCc2ccccc2)CCN(C2CCSCC2)CC1 | > 26 µM (inactive) |
| COc1ccc2c(c1OC)C(=O)OC2Nc1nc(-c2ccccc2)cs1 (stereo not drawn) | > 26 µM (inactive) |
| CCOC(=O)CN1C=C(c2ccc3ccccc3n2)C(C[N+](=O)[O-])c2ccccc21 (stereo not drawn) | 3.31 µM |
| CC(C)c1ccc(C2NC(=O)c3ccccc3O2)cc1 (stereo not drawn) | 5.17 µM |
| COC(=O)c1cnc(N2CCCN(S(=O)(=O)c3ccc(C(F)(F)F)cc3)CC2)nc1C(F)(F)F | > 26 µM (inactive) |
| CCc1nnc(N/N=C/c2ccccc2Cl)n1N | 21.9 µM |
| O=C(Cc1c(O)c2ccccc2[nH]c1=O)NCc1ccccc1 | > 26 µM (inactive) |
| COc1ccccc1CN1CC(C(=O)NCCc2ncccc2C)CCC1=O (stereo not drawn) | 24.8 µM |
| N#CCCn1cc(C=C(C#N)C#N)c(-c2ccc(-c3ccccc3)cc2)n1 | > 12 µM (inactive) |
| Cn1c(CN2CCN(C(=O)c3ccc(F)cc3)CC2)nc2cc([N+](=O)[O-])ccc21 | > 26 µM (inactive) |
| COc1ccc(-n2cc(CNCc3cccnc3)c(-c3cccc(F)c3)n2)cc1 | > 26 µM (inactive) |
| COc1cc(OC)cc(-c2nnc(Sc3ccc(C=O)cc3[N+](=O)[O-])o2)c1 | > 26 µM (inactive) |
| CC(C)(C)NC(=O)NC(=O)CN1CC=C(c2ccccc2)CC1 | > 26 µM (inactive) |
| CCC1(C)N=C(N)Nc2nc3cc(C)c(C)cc3n21 (stereo not drawn) | 24.5 µM |
| Cn1cc(C(=O)N/N=C/c2cc(Br)cs2)c2ccccc21 | 11.3 µM |
| CC1(C)CC(=O)C(C=Nc2cccnc2)=C(O)C1 | > 26 µM (inactive) |
| COC(=O)C(C)N(C(=O)c1ccc(C(=O)c2ccccc2)cc1)c1c(C)cccc1C (stereo not drawn) | 19.3 µM |
| O=C(OCc1csc(-c2ccccc2)n1)c1cccs1 | 0.901 µM |
| Cc1onc(-c2ccccc2)c1C(=O)N=C(N)c1ccc(C(F)(F)F)cc1 | > 26 µM (inactive) |
| CCOc1ncccc1C(=O)NCCc1c[nH]c2ccccc12 | > 26 µM (inactive) |

| Compound | AC40 |
| --- | --- |
| CN(C)C(=O)c1ccc(=O)n(Cc2ccc(Cl)cc2Cl)c1 | > 26 µM (inactive) |
| COc1ccc2nc(SC)c(C#N)cc2c1 | > 26 µM (inactive) |
| O=C(CCC1CCCN(C(=O)c2ccc3cc[nH]c3c2)C1)NCc1ccc(F)c(F)c1 (stereo not drawn) | 14.8 µM |
| Cc1nc(SCCOc2ccc(F)cc2)c2ccccc2n1 | 3.44 µM |
| Cc1ccc(/C=C2\Oc3cc(OC(=O)N4CCOCC4)ccc3C2=O)cc1 | > 26 µM (inactive) |
| CC(OC(=O)/C=C/c1ccc2ccccc2n1)C(=O)NCc1ccccc1 (stereo not drawn) | 25.9 µM |
| c1ccc2[nH]c3cc4ncnc4cc3nc2c1 | 5.43 µM |
| COc1cc(OC)c(OC)cc1CN(C)CCc1ccccn1 | 25.8 µM |
| CCCn1c(SCC(=O)c2cc(OC)ccc2OC)nnc1C(C)C | > 26 µM (inactive) |
| O=C1c2ccccc2C(=O)N1CCC(=O)N1CCCc2ccccc21 | > 26 µM (inactive) |
| COc1cccc(/C=N/NC(=S)NC2CC3CC2C2C=CCC32)c1O (stereo not drawn) | > 26 µM (inactive) |
| COCCCNC(=O)c1ccc(NS(C)(=O)=O)cc1 | > 26 µM (inactive) |
| Cc1ccc(CC2SC(N=C(N)N)=NC2=O)cc1 (stereo not drawn) | > 26 µM (inactive) |
| Cc1ccc(CSc2nc3ccccc3c(=O)n2CCCC(=O)NCc2ccco2)cc1 | > 26 µM (inactive) |
| Cn1c(CO)cnc1SCC(=O)c1ccc(Cl)cc1 | 8.6 µM |
| FC(F)(F)c1cccc(NC(=S)NCc2ccccn2)c1 | 7.35 µM |
| O=C1CC(N2C(=O)/C(=C/C=C/c3ccccc3)SC2=S)C(=O)N1c1ccccc1 (stereo not drawn) | > 26 µM (inactive) |
| CC(C)(C)c1[nH]ncc1[N+](=O)[O-] | > 26 µM (inactive) |
| S=C1NC(c2ccccc2)=NCN1c1ccc(Br)cc1 | 8.41 µM |
| COc1ccc(/C=C/C(=O)OC2CCCN(C)C2)cc1 (stereo not drawn) | 12.6 µM |
